Assay results taken from patent publication US20250195521A1 (Revolution Medicines, Inc., priority 2020, published 2025).
Read-outs that look alike come from different tables or passages of the source.

Key:
[1] = system: Capan-1 cells (K-Ras G12V); assay: CellTiter-Glo cell viability, Capan-1; assay type: cell-based, human; settings: K-Ras G12V, 5-day treatment, read-out: Capan-1 Cell Viability IC50
In short: (§1)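 Viability read by luminescence on day 5 after direct compound addition to cells, following ~30 min room-temperature equilibration. Values expressed as percent of mean DMSO signal, curves fitted with a four-parameter logistic model.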

[2] = system: NCI-H358 cells (K-Ras G12C); assay: CellTiter-Glo cell viability, NCI-H358; assay type: cell-based, human; settings: K-Ras G12C, 5-day treatment, read-out: H358 Cell Viability IC50
In short: as §1

[3] = system: K-Ras G12C (NCI-H358 cells); assay: Potency assay: pERK in NCI-H358 cells; assay type: cell-based, human; settings: NCI-H358 cells, 4 hours, read-out: pERK EC50 (H358 KRAS G12C)
In short: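 Cells plated the day before were exposed for 4 h at 37° C, 5% CO2 to a 10-point, 3-fold DMSO dilution series (10 mM top stock), in duplicate. Phospho-ERK was read by AlphaLISA SureFire Ultra or by In-Cell Western with DRAQ5 DNA stain, and IC50 came from a 4-parameter sigmoidal fit.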

[4] = molecular target: KRAS WT (Homo sapiens (Human), UniProt P01116+P62937); assay: Ras-Raf disruption/FRET/MOA assay (BRAF RBD, Cyclophilin A); assay type: biochemical; settings: read-out: KRAS WT FRET data IC50
In short: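 TR-FRET readout: anti-His Eu-W1024 (10 nM) and anti-GST allophycocyanin (50 nM) added after 3 h, 25° C compound incubation, then 1.5 h more. Decrease in FRET ratio versus DMSO wells marks Ras:RAF disruption; IC50 reported.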

[5] = system: NCI-H358 (K-Ras G12C); assay: CellTiter-Glo cell viability assay, NCI-H358; assay type: cell-based, human; settings: 5-day treatment, read-out: H358 Cell Viability assay data (K-Ras G12C, IC50)
In short: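 Viability read-out was luminescent (CellTiter-Glo) on day 5 of compound exposure in K-Ras G12C NCI-H358 cells. Values were expressed as percent of mean DMSO signal and fitted with a four-parameter logistic curve.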

Chain of KRAS WT (P01116 other isoform, or with tags, fused parts or gaps): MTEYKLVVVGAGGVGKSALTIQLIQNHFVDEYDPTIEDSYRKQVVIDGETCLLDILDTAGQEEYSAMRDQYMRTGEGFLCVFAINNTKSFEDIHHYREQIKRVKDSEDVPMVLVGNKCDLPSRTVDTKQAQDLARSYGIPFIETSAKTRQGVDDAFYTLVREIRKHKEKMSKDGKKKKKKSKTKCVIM
Chain of KRAS WT (P62937 whole entry): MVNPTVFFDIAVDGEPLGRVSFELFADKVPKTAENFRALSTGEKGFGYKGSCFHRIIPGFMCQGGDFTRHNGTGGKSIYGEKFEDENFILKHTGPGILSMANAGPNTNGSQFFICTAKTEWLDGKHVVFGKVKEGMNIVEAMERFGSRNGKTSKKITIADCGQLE

Row | IC50 ([2]; Homo sapiens, NCI-H358, 120 h) | EC50 ([3]; Homo sapiens) | IC50 [4] | IC50 ([5]; Homo sapiens, NCI-H358, 120 h) | SMILES | IC50 ([1]; Homo sapiens, CAPAN-1, 120 h) | IC50 [1] | IC50 [2] | IC50 [5] | EC50 [3]
1 | 100 to 1000 nM | < 5000 nM | 1000 to 10000 nM |  | CCn1c(-c2cccnc2[C@H](C)OC)c2c3cc(ccc31)-c1csc(n1)C[C@H](NC(=O)[C@H](C(C)C)N1C[C@@H](c3ccccc3)CC1=O)C(=O)N1CCC[C@H](N1)C(=O)OCC(C)(C)C2 (single isomer, unassigned) [Compound A544] | 100 to 1000 nM |  |  |  | 
2 | 100 to 1000 nM | < 5000 nM | 100 to 1000 nM | 10 to 100 nM | CCn1c(-c2cccnc2[C@H](C)OC)c2c3cc(ccc31)-c1cc(O)cc(c1)C[C@H](NC(=O)[C@H](C(C)C)N(C)C(=O)[C@H]1CCN(C(C)=O)C1)C(=O)N1CCC[C@H](N1)C(=O)OCC(C)(C)C2 [Compound A5] | 100 to 1000 nM |  |  |  | 
3 | 1000 to 10000 nM | < 5000 nM | 1000 to 10000 nM |  | CCn1c(-c2cccnc2[C@H](C)OC)c2c3cc(ccc31)-c1cccc(c1)C[C@H](NC(=O)[C@H](C(C)C)N(C)C(C)=O)C(=O)N1CCC[C@H](N1)C(=O)OCC(C)(C)C2 [Compound A61] | 1000 to 10000 nM |  |  |  | 
4 | 1000 to 10000 nM | < 5000 nM | 1000 to 10000 nM | 10 to 100 nM | CCn1c(-c2cccnc2[C@H](C)OC)c2c3cc(ccc31)-c1csc(n1)C[C@H](NC(=O)[C@H](C(C)C)N(C)C(=O)[C@H]1CCN(C(=O)CN(C)C)C1)C(=O)N1CCC[C@H](N1)C(=O)OCC(C)(C)C2 [Compound A97] | 1000 to 10000 nM |  |  |  | 
5 | 100 to 1000 nM | < 5000 nM | 1000 to 10000 nM | < 10 nM | CCn1c(-c2cccnc2[C@H](C)OC)c2c3cc(ccc31)-c1csc(n1)C[C@H](NC(=O)[C@H](C(C)C)N(C)C(=O)C1COC1)C(=O)N1CCC[C@H](N1)C(=O)OCC(C)(C)C2 [Compound A245] | 100 to 1000 nM |  |  |  | 
6 | 1000 to 10000 nM | < 5000 nM | 1000 to 10000 nM |  | CCn1c(-c2cccnc2[C@H](C)OC)c2c3cc(ccc31)-c1cc(O)cc(c1)C[C@H](NC(=O)[C@@H](C(C)C)N(C)C(C)=O)C(=O)N1CCC[C@H](N1)C(=O)OCC(C)(C)C2 [Compound A256] |  |  |  |  | 
7 | 100 to 1000 nM | < 5000 nM | 100 to 1000 nM |  | CCn1c(-c2cccnc2[C@H](C)OC)c2c3cc(ccc31)-c1csc(n1)C[C@H](NC(=O)C1(F)CCC1)C(=O)N1CCC[C@H](N1)C(=O)OCC(C)(C)C2 [Compound A361] | 100 to 1000 nM |  |  |  | 
8 | 100 to 1000 nM | < 5000 nM | 100 to 1000 nM |  | CCn1c(-c2cccnc2[C@H](C)OC)c2c3cc(ccc31)-c1csc(n1)C[C@H](NC(=O)C1(F)CC1)C(=O)N1CCC[C@H](N1)C(=O)OCC(C)(C)C2 [Compound A362] | 100 to 1000 nM |  |  |  | 
9 | 100 to 1000 nM | < 5000 nM | 10 to 100 nM |  | CCn1c(-c2cccnc2[C@H](C)OC)c2c3cc(ccc31)-c1cc(O)cc(c1)C[C@H](NC(=O)[C@H](C(C)C)N(C)C(=O)[C@H]1CCN(C(=O)[C@@H](C)N(C)C)C1)C(=O)N1CCC[C@H](N1)C(=O)OCC(C)(C)C2 [Compound A386] | 100 to 1000 nM |  |  |  | 
10 |  | < 5000 nM |  | < 10 nM | CCn1c(-c2cccnc2[C@H](C)OC)c2c3cc(ccc31)-c1cc(O)cc(c1)C[C@H](NC(=O)[C@H](C(C)C)N(C)C(=O)C13CCC(CO1)C3)C(=O)N1CCC[C@H](N1)C(=O)OCC(C)(C)C2 [Compound A411] |  | 100 to 1000 nM | 100 to 1000 nM |  | 
11 | < 10 nM | < 5000 nM | 100 to 1000 nM |  | CCn1c(-c2cc(N3CCN(C)CC3)cnc2[C@H](C)OC)c2c3cc(ccc31)-c1csc(n1)C[C@H](NC(=O)[C@H](C(C)C)N(C)C(=O)[C@H]1CCCS1(=O)=O)C(=O)N1CCC[C@H](N1)C(=O)OCC(C)(C)C2 [Compound A439] | 10 to 100 nM |  |  |  | 
12 |  |  |  |  | CCO[C@@H]1c2nc(cs2)-c2ccc3c(c2)c(c(-c2cc(C4CCN(C5COC5)CC4)cnc2[C@H](C)OC)n3CC)CC(C)(C)COC(=O)[C@@H]2CCCN(N2)C(=O)[C@H]1NC(=O)[C@H]1[C@H](C)[C@@H]1C [Compound A449, (1r,2R,3S)—N-((6^3S,3S,4S,Z)-3-ethoxy-1^1-ethyl-1^2-(2-((S)-1-methoxyethyl)-5-(1-(oxetan-3-yl)piperidin-4-yl)pyridin-3-yl)-10,10-dimethyl-5,7-dioxo-6^1,6^2,6^3,6^4,6^5,6^6-hexahydro-1^1H-8-oxa-2 (4,2)-thiazola-1 (5,3)-indola-6 (1,3)-pyridazinacycloundecaphane-4-yl)-2,3-dimethylcyclopropane-1-carboxamide] |  | 100 to 1000 nM | 100 to 1000 nM | 10 to 100 nM | < 5000 nM
13 |  |  |  |  | CCn1c(-c2cccnc2[C@H](C)OC)c2c3cc(ccc31)-c1csc(n1)[C@@H](OCC1CCN(C)CC1)[C@H](NC(=O)[C@H]1C[C@@H]1C)C(=O)N1CCC[C@H](N1)C(=O)OCC(C)(C)C2 [Compound A451, (1S,2S)—N-((6^3S,3S,4S,Z)-1^1-ethyl-1^2-(2-((S)-1-methoxyethyl)pyridin-3-yl)-10,10-dimethyl-3-((1-methylpiperidin-4-yl)methoxy)-5,7-dioxo-6^1,6^2,6^3,6^4,6^5,6^6-hexahydro-1^1H-8-oxa-2 (4,2)-thiazola-1 (5,3)-indola-6 (1,3)-pyridazinacycloundecaphane-4-yl)-2-methylcyclopropane-1-carboxamide] |  | 10 to 100 nM | 10 to 100 nM | 10 to 100 nM | < 5000 nM
14 |  |  |  |  | CCOC1c2nc(cs2)-c2ccc3c(c2)c(c(-c2cc(C4CC5COCC(C4)N5C4CC4)cnc2C(C)OC)n3CC)CC(C)(C)COC(=O)C2CCCN(N2)C(=O)C1NC(=O)C1C(C)C1C [Compound A483, (1r,2R,3S)—N-((6^3S,3S,4S,Z)-12-(5-((1R,5S,7s)-9-cyclopropyl-3-oxa-9-azabicyclo[3.3.1]nonan-7-yl)-2-((S)-1-methoxyethyl)pyridin-3-yl)-3-ethoxy-1^1-ethyl-10,10-dimethyl-5,7-dioxo-6^1,6^2,6^3,6^4,6^5,6^6-hexahydro-1^1H-8-oxa-2 (4,2)-thiazola-1 (5,3)-indola-6 (1,3)-pyridazinacycloundecaphane-4-yl)-2,3-dimethylcyclopropane-1-carboxamide] |  | 10 to 100 nM | < 10 nM | < 10 nM | < 5000 nM
15 | 10 to 100 nM | < 5000 nM | 100 to 1000 nM |  | CCn1c(-c2cccnc2[C@H](C)OC)c2c3cc(ccc31)-c1csc(n1)C[C@H](NC(=O)[C@H](C(C)C)N(C)C(=O)N1CCC[C@@H]1CN(C)C)C(=O)N1CCC[C@H](N1)C(=O)OCC(C)(C)C2 [Compound A518] | 10 to 100 nM |  |  |  | 
16 | 100 to 1000 nM | < 5000 nM | 100 to 1000 nM |  | CCn1c(-c2cccnc2[C@H](C)OC)c2c3cc(ccc31)-c1csc(n1)C[C@H](NC(=O)[C@H](C(C)C)N(CCc1ccncc1)C1CC1)C(=O)N1CCC[C@H](N1)C(=O)OCC(C)(C)C2 [Compound A556] | 100 to 1000 nM |  |  |  | 
17 | 10 to 100 nM | < 5000 nM | 100 to 1000 nM |  | CCn1c(-c2cccnc2[C@H](C)OC)c2c3cc(ccc31)-c1csc(n1)C[C@H](NC(=O)[C@H](C(C)C)N(C)C(=O)N1CC[C@@H](F)[C@H](N)C1)C(=O)N1CCC[C@H](N1)C(=O)OCC(C)(C)C2 [Compound A559] | 100 to 1000 nM |  |  |  | 
18 | 10 to 100 nM | < 5000 nM | 100 to 1000 nM |  | CCn1c(-c2cccnc2[C@H](C)OC)c2c3cc(ccc31)-c1csc(n1)C[C@H](NC(=O)[C@H](C(C)C)N(C)C(=O)[C@@H]1OCC[C@@H]1c1ccccc1)C(=O)N1CCC[C@H](N1)C(=O)OCC(C)(C)C2 [Compound A585] | 100 to 1000 nM |  |  |  | 
19 | 100 to 1000 nM | < 5000 nM | 100 to 1000 nM |  | CCn1c(-c2cccnc2[C@H](C)OC)c2c3cc(ccc31)-c1cccc(c1)C[C@H](NC(=O)[C@H](C(C)C)N(C)C(=O)[C@@H]1OCC[C@@H]1c1ccccc1)C(=O)N1CCC[C@H](N1)C(=O)OCC(C)(C)C2 [Compound A586] | 100 to 1000 nM |  |  |  | 
20 | 1000 to 10000 nM | < 5000 nM | 1000 to 10000 nM |  | CCn1c(-c2cccnc2[C@H](C)OC)c2c3cc(ccc31)-c1csc(n1)C[C@H](NC(=O)[C@H](C(C)C)N(C)C(=O)N1CCC[C@H]1c1ccccc1)C(=O)N1CCC[C@H](N1)C(=O)OCC(C)(C)C2 [Compound A599] | 1000 to 10000 nM |  |  |  | 
21 | 100 to 1000 nM | < 5000 nM | 10 to 100 nM |  | CCn1c(-c2cccnc2[C@H](C)OC)c2c3cc(ccc31)-c1cc(O)cc(c1)C[C@H](NC(=O)[C@H](C(C)C)N(C)C(=O)[C@]1(F)CCN(C(=O)OC)C1)C(=O)N1CCC[C@H](N1)C(=O)OCC(C)(C)C2 [Compound A616] | 100 to 1000 nM |  |  |  | 
